One series deals with T1, human mGlu2 receptor (Homo sapiens, UniProt Q14416).
T1 construct: expressed in transfected cells; host or cells: CHO cells
Put plainly: [35S]GTPγS binding assay, negative allosteric modulation of mGluR2. The series is classed as biochemical. As to conditions: for Emax: maximal % inhibition relative to the control glutamate response (EC80 glutamate), read-out: GTPγS-hmGluR2 anGT Emax; for IC50: membranes from CHO cells transfected with human mGlu2 receptor, glutamate 60 μM (~EC80), read-out: GTPγS-hmGluR2 anGT pIC50 (converted). The text has this: The compounds provided in the present invention are negative allosteric modulators of mGluR2. These compounds appear to inhibit glutamate responses by binding to an allosteric site other than the glutamate binding site. The response of mGluR2 to a concentration of glutamate is decreased when compounds of Formula (I) are present. Compounds of Formula (I) are expected to have their effect substantially at mGluR2 by virtue of their ability to reduce the function of the receptor. The effects of negative allosteric modulators tested at mGluR2 using the [^35S]GTPγS binding assay method described below and which is suitable for the identification of such compounds, and more particularly the compounds according to Formula (I), are shown in Table 7.
1) [^35S]GTPγS Binding Assay
The [^35S]GTPγS binding assay is a functional membrane-based assay used to study G-protein coupled receptor (GPCR) function whereby incorporation of a non-hydrolysable form of GTP, [^35S]GTPγS (guanosine 5′-triphosphate, labelled with […] ^35S), is measured. The G-protein a subunit catalyzes the exchange of guanosine 5′-diphosphate (GDP) by guanosine triphosphate (GTP) and on activation of the GPCR by an agonist, [^35S]GTPγS, becomes incorporated and cannot be cleaved to continue the exchange cycle (Harper (1998) Current Protocols in Pharmacology 2.6.1-10, John Wiley & Sons, Inc.). […] Here we describe the use of the [^35S]GTPγS binding assay using membranes from cells transfected with the human mGlu2 receptor and adapted from Schaffhauser et al. (Molecular Pharmacology, 2003, […]) for the detection of the negative allosteric modulation (NAM) properties of the compounds of this invention.
CHO-cells were cultured to pre-confluence and stimulated with 5 mM butyrate for 24 h. Cells were then collected by scraping in PBS and cell suspension was centrifuged (10 min at 4000 RPM in benchtop centrifuge). Supernatant was discarded and pellet gently resuspended in 50 mM Tris-HCl, pH 7.4 by mixing with an Ultra Turrax homogenizer. The suspension was centrifuged at 12,400 RPM (Sorvall F14S-6x250Y) for 10 minutes and the supernatant discarded. The pellet was homogenized in 5 mM Tris-HCl, pH 7.4 using an Ultra Turrax homogenizer and centrifuged again (13,000 RPM, 20 min, 4° C.). The final pellet was resuspended in 50 mM Tris-HCl, pH 7.4 and stored at −80° C. in appropriate aliquots before use. Protein concentration was determined by the Bradford method (Bio-Rad, USA) with bovine serum albumin as standard.
[^35S]GTPγS Binding Assay
Measurement of mGluR2 negative allosteric modulatory activity of test compounds was performed as follows. Test compounds and glutamate were diluted in assay buffer containing 10 mM HEPES acid, 10 mM HEPES salt, pH 7.4, 100 mM NaCl, 3 mM MgCl2 and 10 μM GDP. Human mGlu2 receptor-containing membranes were thawed on ice and diluted in assay buffer supplemented with 18 μg/ml saponin. Membranes were pre-incubated with compound together with a predefined (˜EC80) concentration of glutamate (60 μM) for 30 min at 30° C. After addition of [^35S]GTPγS (f.c. 0.1 nM), assay mixtures were shaken briefly and further incubated to allow [^35S]GTPγS incorporation on activation (30 minutes, 30° C.). Final assay mixtures contained 7 μg of membrane protein in 10 mM HEPES acid, 10 mM HEPES salt, pH 7.4, 100 mM NaCl, 3 mM MgCl2, 10 μM GDP and 10 μg/ml saponin. Total reaction volume was 200 μl. Reactions were terminated by rapid filtration through Unifilter-96 GF/B plates (Perkin Elmer, Massachusetts, USA) using a 96-well filtermate universal harvester. Filters were washed 6 times with ice-cold 10 mM NaH2PO4/10 mM Na2HPO4, pH 7.4. Filters were then air-dried, and 30 μl of liquid scintillation cocktail (Microscint-O) was added to each well. Membrane-bound radioactivity was counted in a Topcount.
The concentration-response curves of representative compounds of the present invention were generated using the Lexis software interface (developed at J&J). […]

T1 sequence (Q14416 19-872): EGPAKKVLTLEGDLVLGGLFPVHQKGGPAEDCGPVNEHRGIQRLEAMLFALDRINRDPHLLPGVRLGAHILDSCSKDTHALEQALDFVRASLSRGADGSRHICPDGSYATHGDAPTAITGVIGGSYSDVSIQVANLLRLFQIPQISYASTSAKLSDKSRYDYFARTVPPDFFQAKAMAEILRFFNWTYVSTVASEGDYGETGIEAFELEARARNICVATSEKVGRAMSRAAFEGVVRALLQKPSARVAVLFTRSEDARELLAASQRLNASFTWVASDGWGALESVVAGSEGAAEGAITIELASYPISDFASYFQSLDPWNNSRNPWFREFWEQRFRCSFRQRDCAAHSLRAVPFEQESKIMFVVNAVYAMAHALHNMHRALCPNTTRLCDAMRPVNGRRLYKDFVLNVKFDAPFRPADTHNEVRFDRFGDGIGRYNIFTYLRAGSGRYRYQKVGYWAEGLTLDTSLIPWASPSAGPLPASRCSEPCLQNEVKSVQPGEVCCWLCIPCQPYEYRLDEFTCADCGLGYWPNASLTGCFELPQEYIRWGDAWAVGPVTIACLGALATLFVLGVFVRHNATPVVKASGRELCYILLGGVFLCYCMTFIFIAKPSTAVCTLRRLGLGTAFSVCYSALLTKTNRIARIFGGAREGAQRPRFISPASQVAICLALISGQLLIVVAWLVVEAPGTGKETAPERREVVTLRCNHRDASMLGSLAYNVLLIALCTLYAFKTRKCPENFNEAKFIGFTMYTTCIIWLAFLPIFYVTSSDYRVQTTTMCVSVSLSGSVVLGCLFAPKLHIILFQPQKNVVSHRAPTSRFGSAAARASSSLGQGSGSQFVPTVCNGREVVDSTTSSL

For `C[C@H]1CN(c2ccc(C(F)(F)F)cc2)C(=O)c2c(-c3nc[nH]c3Br)cnn21` [Compound 1], the melting point – broadly, the temperature of the solid-liquid transition – was 228.68 °C. Moreover, on human mGlu2 receptor, the Emax (usually the size of the effect at its maximum, as opposed to the concentration needed) came out at 99.3% and the IC50 is 11.5 nM.

Regarding `C[C@H]1CN(c2ccc(C(F)(F)F)cc2)C(=O)c2c(-c3c[nH]c(C4CC4)n3)cnn21` [Compound 2], on human mGlu2 receptor, the Emax was found to be 103% and the IC50 is 20 nM.

As for `C[C@H]1CN(c2ccc(C(F)(F)F)cc2)C(=O)c2c(-c3nc(-c4ccc(N)nc4)[nH]c3Cl)cnn21` [Compound 3], on human mGlu2 receptor, the Emax turned out to be 108% and the IC50 was 25.1 nM.

As to `C[C@H]1CN(c2ccc(C(F)(F)F)cc2)C(=O)c2c(-c3c[nH]c(-c4ccccc4)n3)cnn21` [Compound 5], the melting point was found to be 119.88 °C. Further, on human mGlu2 receptor, the Emax came to 105% and the IC50 was 27.5 nM.

As to `CC(C)c1nc(-c2cnn3c2C(=O)N(c2ccc(C(F)(F)F)cc2)C[C@@H]3C)c[nH]1` [Compound 6], the melting point was 156.03 °C. At human mGlu2 receptor, the maximal response (Emax) worked out at 104% and the IC50 was 30.9 nM.

For the compound `C[C@H]1CN(c2ccc(C(F)(F)F)cc2)C(=O)c2c(-c3cnc(C(F)(F)F)[nH]3)cnn21` [Compound 8], at human mGlu2 receptor, the maximal effect (Emax) worked out at 108% and the IC50 is 33.1 nM.

As for `C[C@H]1CN(c2ccc(C(F)(F)F)cc2)C(=O)c2c(-c3nc(-c4ccc(N)nc4)[nH]c3Br)cnn21` [Compound 9], on human mGlu2 receptor, the Emax was 108% and the IC50 was 34.7 nM.

For the compound `C[C@H]1CN(c2ccc(C(F)(F)F)cc2)C(=O)c2c(-c3cnc(C#N)[nH]3)cnn21` [Compound 10], the melting point is 219.19 °C. Also, on human mGlu2 receptor, the maximal effect (Emax) came out at 107% and the IC50 is 36.3 nM.

In turn, `C[C@H]1CN(c2ccc(C(F)(F)F)cc2)C(=O)c2c(-c3cnc[nH]3)cnn21` [Compound 12] had a melting point of 176.92 °C. At human mGlu2 receptor, the Emax was found to be 101% and the IC50 was 70.8 nM.

Turning to `COCc1ncc(-c2cnn3c2C(=O)N(c2ccc(C(F)(F)F)cc2)C[C@@H]3C)[nH]1` [Compound 13], on human mGlu2 receptor, the maximal response (Emax) turned out to be 104% and the IC50 is 83.2 nM.

Compound `Cc1[nH]c(-c2cccnc2)nc1-c1cnn2c1C(=O)N(c1ccc(C(F)(F)F)cc1)C[C@@H]2C` [Compound 14] registered a melting point of 244.74 °C. Moreover, at human mGlu2 receptor, the Emax came out at 103% and the IC50 was 110 nM.

`CNc1ncc(-c2cnn3c2C(=O)N(c2ccc(C(F)(F)F)cc2)C[C@@H]3C)[nH]1` [Compound 15] gave a melting point of 205 °C. Also, at human mGlu2 receptor, the Emax came to 102% and the IC50 was 170 nM.

Compound `Cc1[nH]c(-c2ccccn2)nc1-c1cnn2c1C(=O)N(c1ccc(C(F)(F)F)cc1)C[C@@H]2C` [Compound 17] returned a melting point of 198.73 °C. Also, at human mGlu2 receptor, the Emax is 106% and the IC50 was 145 nM.

Consider `C[C@H]1CN(c2ccc(Cl)c(Cl)c2)C(=O)c2c(-c3c[nH]c(-c4ccc(N)nc4)n3)cnn21` [Compound 19], for which, on human mGlu2 receptor, the Emax was found to be 108% and the IC50 is 50.1 nM.

Compound `Cc1cc(N2C[C@H](C)n3ncc(-c4c[nH]c(-c5ccc(N)nc5)n4)c3C2=O)ccc1C(F)(F)F` [Compound 20] displayed a melting point of 275.27 °C. At human mGlu2 receptor, the Emax was 107% and the IC50 is 53.7 nM.

`Cc1nc(-c2cnn3c2C(=O)N(c2ccc(C(F)(F)F)c(C#N)c2)C[C@@H]3C)c[nH]1` [Compound 23] displayed a melting point of 226.81 °C. Also, at human mGlu2 receptor, the Emax worked out at 104% and the IC50 was 64.6 nM.

As to `Cc1ncc(-c2cnn3c2C(=O)N(c2ccc(C(F)(F)F)c(CF)c2)C[C@@H]3C)[nH]1` [Compound 24], the melting point came to 174.28 °C. In addition, on human mGlu2 receptor, the Emax was determined as 106% and the IC50 was 15.8 nM.

Take `C[C@H]1CN(c2ccc(C(F)(F)F)c(Cl)c2)C(=O)c2c(-c3c[nH]c(C#N)n3)cnn21` [Compound 29]: on human mGlu2 receptor, the Emax came to 111% and the IC50 is 3.89 nM.

As for `CNC(=O)c1nc(-c2cnn3c2C(=O)N(c2ccc(C(F)(F)F)c(Cl)c2)C[C@@H]3C)c[nH]1` [Compound 35], at human mGlu2 receptor, the maximal effect (Emax) was found to be 111% and the IC50 was 38 nM.

In the case of `C[C@H]1CN(c2ccc(C(F)(F)F)c(Cl)c2)C(=O)c2c(-c3c[nH]c(C(=O)N(C)C)n3)cnn21` [Compound 36], at human mGlu2 receptor, the Emax came to 106% and the IC50 was 110 nM.

Compound `C[C@H]1CN(c2ccc(C(F)(F)F)c(Cl)c2)C(=O)c2c(-c3c[nH]c(-c4cccnc4)n3)cnn21` [Compound 37] came in with a melting point of 188.06 °C. In addition, at human mGlu2 receptor, the Emax stood at 109% and the IC50 is 12.9 nM.

`Cc1[nH]c(-c2ccccn2)nc1-c1cnn2c1C(=O)N(c1ccc(C(F)(F)F)c(Cl)c1)C[C@@H]2C` [Compound 38] returned a melting point of 232.11 °C. At human mGlu2 receptor, the Emax worked out at 105% and the IC50 is 21.4 nM.

On to `C[C@H]1CN(c2ccc(C(F)(F)F)c(Cl)c2)C(=O)c2c(-c3c[nH]c(-c4ccccn4)n3)cnn21` [Compound 39], for which, on human mGlu2 receptor, the maximum response (Emax) is 104% and the IC50 was 8.32 nM.

Regarding `C[C@H]1CN(c2ccc(C(F)(F)F)cc2)C(=O)c2c(-c3cnc(C4CCC4)[nH]3)cnn21` [Compound 40], on human mGlu2 receptor, the Emax was determined as 107% and the IC50 was 6.92 nM.

As for `Cc1cc(-c2ncc(-c3cnn4c3C(=O)N(c3ccc(C(F)(F)F)cc3)C[C@@H]4C)[nH]2)ccn1` [Compound 41], at human mGlu2 receptor, the maximal effect (Emax) worked out at 106% and the IC50 is 166 nM.

On to `C[C@H]1CN(c2ccc(C(F)(F)F)c(Cl)c2)C(=O)c2c(-c3c[nH]c(C4CCC4)n3)cnn21` [Compound 42], for which the melting point is 173.18 °C. Besides, at human mGlu2 receptor, the maximum response (Emax) was found to be 109% and the IC50 was 1.86 nM.

`C[C@H]1CN(c2ccc(C(F)(F)F)c(Cl)c2)C(=O)c2c(-c3c[nH]c(-c4cnccn4)n3)cnn21` [Compound 43]: the melting point turned out to be 227.75 °C. Also, on human mGlu2 receptor, the Emax was found to be 106% and the IC50 was 4.9 nM.

As for `C[C@H]1CN(c2ccc(C(F)(F)F)cc2)C(=O)c2c(-c3c[nH]c(-c4cnccn4)n3)cnn21` [Compound 44], on human mGlu2 receptor, the Emax turned out to be 103% and the IC50 was 38.9 nM.

As to `C[C@H]1CN(c2ccc(C(F)(F)F)c(Cl)c2)C(=O)c2c(-c3nc(-c4ccc(N)nc4)[nH]c3C#N)cnn21` [Compound 45], on human mGlu2 receptor, the maximum response (Emax) is 106% and the IC50 is 34.7 nM.

Values taken from patent US10072014B2 (Janssen Pharmaceutica NV, priority 2014, dated 2018).
